The record followed here is patent US20240000075A1, “FUNGICIDAL ARYL AMIDINES” (CORTEVA AGRISCIENCE LLC, priority 2020, published 2024).

A word on the melting point: it is the temperature, or range, at which the solid turns liquid.

Structures are written as SMILES. Like-named read-outs stand apart in the source and are kept apart here. Where only a bound is given, the exact number is not on record here.

Data set [1] relates to Phakopsora pachyrhizi. The data set can be described thus: Asian soybean rust, whole-plant fungicidal activity (PHAKPA). Conditions: read-out: % Disease Control Rating PHAKPA. The class given is in vivo. The method, boiled down:
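Ten-day-old 'Williams 82' soybean seedlings sprayed to run-off with compound in acetone/water (1:9, 0.011% Tween-20), air-dried, then inoculated; 24 h dark dew room at 100% RH, then growth room. Disease severity scored 0–100% on sprayed leaves; percent control relative to untreated plants.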

Data set [2] has as its system Rhynchosporium commune. In words: Leaf blotch of barley, whole-plant fungicidal activity (RHYNSE). Conditions: 24 h, 1DP (1 day protectant), read-out: % Disease Control Rating RHYNSE. The class given is in vivo. The method, boiled down: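 Barley cv. 'Harrington' at full first-leaf emergence (7-10 seedlings per pot) was sprayed to run-off with compound in acetone plus nine volumes of water containing 110 ppm Triton X-100, air-dried, then inoculated with spore suspension. Plants spent two days in a dark dew room at 100% RH, then moved to greenhouse for disease development.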

Data set [3] relates to Zymoseptoria tritici. In words: Septoria leaf blotch of wheat, whole-plant fungicidal activity (SEPTTR). The class given is in vivo, Zymoseptoria tritici on wheat plants (variety 'Yuma'). Conditions: read-out: % Disease Control Rating SEPTTR. The procedure, abridged:
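Compounds in acetone, diluted with nine volumes of water containing 110 ppm Triton X-100, were sprayed to run-off on 'Yuma' wheat seedlings at full first-leaf emergence. Spore inoculation was 3 days before (3DC, curative) or 1 day after (1DP, protectant) treatment, then 3 days at 100% RH and greenhouse. First-leaf disease severity (0–100%) was scored relative to untreated plants as percent control.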

Data set [4] concerns Puccinia triticina. The data set can be described thus: Wheat brown rust, whole-plant fungicidal activity (PUCCRT). The class given is in vivo, Puccinia triticina on wheat plants (variety 'Yuma'). The settings on record: 24 h, 1DP (1 day protectant), read-out: % Disease Control Rating PUCCRT. The procedure, abridged: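 Wheat 'Yuma' seedlings at first-leaf stage sprayed to run-off with compound from acetone stock diluted in nine volumes water containing 110 ppm Triton X-100, then inoculated with Puccinia triticina spores. Held overnight in dark dew room at 100% RH, then greenhouse for disease development.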

Take `CCN(C)/C=N/c1cc(C)c(C(=O)Cc2ccccc2C)cc1C` [Compound 1]: the melting point is 101 to 105 °C. The pest or weed control at 200 ppm in data set [1] (24 h, 1DP (1 day protectant)) is over 85%. Besides, the pest or weed control at 200 ppm in data set [1] (72 h, 3DC (3 day curative)) was over 85%. Also, in data set [2], the pest or weed control at 200 ppm was over 85%. Also, the pest or weed control at 200 ppm in data set [3] (24 h, 1DP (1 day protectant)) was under 20%. Also, the pest or weed control at 200 ppm in data set [3] (72 h, 3DC (3 day curative)) was in the range of 20 to 50%. Besides, in data set [4], the pest or weed control at 200 ppm is over 85%.
In turn, `CCN(C)/C=N/c1cc(C)c(C(=O)Cc2ccccc2)cc1C` [Compound 2] returned a melting point of 43 to 46 °C. Also, the pest or weed control at 200 ppm in data set [1] (24 h, 1DP (1 day protectant)) is over 85%. Further, the pest or weed control at 200 ppm in data set [1] (72 h, 3DC (3 day curative)) was over 85%. The pest or weed control at 200 ppm in data set [2] is over 85%. Moreover, the pest or weed control at 200 ppm in data set [3] (24 h, 1DP (1 day protectant)) is 20 to 50%. For the same compound, in data set [3] (72 h, 3DC (3 day curative)), the pest or weed control at 200 ppm is under 20%. Further, the pest or weed control at 200 ppm in data set [4] was over 85%.
Turning to `CCN(C)/C=N/c1cc(C)c(C(=O)CC2CCCCC2)cc1C` [Compound 3], the melting point fell in the range of 69 to 71 °C. Moreover, the pest or weed control at 200 ppm in data set [1] (24 h, 1DP (1 day protectant)) was over 85%. Further, the pest or weed control at 200 ppm in data set [1] (72 h, 3DC (3 day curative)) is over 85%. Besides, in data set [2], the pest or weed control at 200 ppm was over 85%. Also, the pest or weed control at 200 ppm in data set [3] (24 h, 1DP (1 day protectant)) is over 85%. For the same compound, the pest or weed control at 200 ppm in data set [3] (72 h, 3DC (3 day curative)) lay in the range of 20 to 50%. In addition, in data set [4], the pest or weed control at 200 ppm was over 85%.
For `CCN(C)/C=N/c1cc(C)c(C(=O)Cc2cccc(C(F)(F)F)c2)cc1C` [Compound 5], the melting point fell in the range of 73 to 76 °C. For the same compound, the pest or weed control at 200 ppm in data set [1] (24 h, 1DP (1 day protectant)) was over 85%. Besides, the pest or weed control at 200 ppm in data set [1] (72 h, 3DC (3 day curative)) was over 85%. For the same compound, the pest or weed control at 200 ppm in data set [2] was over 85%. The pest or weed control at 200 ppm in data set [3] (24 h, 1DP (1 day protectant)) is 20 to 50%. For the same compound, the pest or weed control at 200 ppm in data set [3] (72 h, 3DC (3 day curative)) was under 20%. The pest or weed control at 200 ppm in data set [4] is over 85%.
`CCN(C)/C=N/c1cc(C)c(C(=O)Cc2ccc(C)cc2F)cc1C` [Compound 7] registered a melting point of 102 to 105 °C. In addition, the pest or weed control at 200 ppm in data set [1] (24 h, 1DP (1 day protectant)) is over 85%. The pest or weed control at 200 ppm in data set [1] (72 h, 3DC (3 day curative)) was over 85%. The pest or weed control at 200 ppm in data set [2] is over 85%. For the same compound, the pest or weed control at 200 ppm in data set [3] (24 h, 1DP (1 day protectant)) was 20 to 50%. In data set [3] (72 h, 3DC (3 day curative)), the pest or weed control at 200 ppm is under 20%. Moreover, in data set [4], the pest or weed control at 200 ppm is over 85%.
Consider `CCN(C)/C=N/c1cc(C)c(C(=O)Cc2ccc(OC(F)(F)F)cc2)cc1C` [Compound 8], for which the melting point lay within 70 to 74 °C. In data set [1] (24 h, 1DP (1 day protectant)), the pest or weed control at 200 ppm was over 85%. For the same compound, the pest or weed control at 200 ppm in data set [1] (72 h, 3DC (3 day curative)) was over 85%. In data set [2], the pest or weed control at 200 ppm was over 85%. The pest or weed control at 200 ppm in data set [3] (24 h, 1DP (1 day protectant)) lay in the range of 50 to 85%. The pest or weed control at 200 ppm in data set [3] (72 h, 3DC (3 day curative)) fell in the range of 20 to 50%. Moreover, the pest or weed control at 200 ppm in data set [4] was over 85%.
Compound `CCN(C)/C=N/c1ccc(C(=O)Cc2cccc(C(F)(F)F)c2)c(C)c1C` [Compound 10] yielded a melting point of 53 to 57 °C. Also, the pest or weed control at 200 ppm in data set [1] (24 h, 1DP (1 day protectant)) was over 85%. The pest or weed control at 200 ppm in data set [1] (72 h, 3DC (3 day curative)) is over 85%. In addition, the pest or weed control at 200 ppm in data set [2] was in the range of 20 to 50%. Moreover, the pest or weed control at 200 ppm in data set [3] (24 h, 1DP (1 day protectant)) is under 20%. The pest or weed control at 200 ppm in data set [3] (72 h, 3DC (3 day curative)) was under 20%. Besides, the pest or weed control at 200 ppm in data set [4] is under 20%.
As for `CCN(C)/C=N/c1ccc(C(=O)CCC(F)(F)F)c(C)c1C` [Compound 13], the melting point was in the range of 52 to 56 °C. The pest or weed control at 200 ppm in data set [1] (24 h, 1DP (1 day protectant)) lay within 50 to 85%. In addition, in data set [1] (72 h, 3DC (3 day curative)), the pest or weed control at 200 ppm is over 85%. In addition, the pest or weed control at 200 ppm in data set [2] was under 20%. The pest or weed control at 200 ppm in data set [3] (24 h, 1DP (1 day protectant)) was under 20%. Besides, the pest or weed control at 200 ppm in data set [3] (72 h, 3DC (3 day curative)) is under 20%. The pest or weed control at 200 ppm in data set [4] was under 20%.
Take `CCN(C)/C=N/c1cc(C)c(C(=O)Cc2ccc(OC(F)F)cc2)cc1C` [Compound 85]: the pest or weed control at 200 ppm in data set [1] (24 h, 1DP (1 day protectant)) is over 85%; in data set [1] (72 h, 3DC (3 day curative)) it was over 85%; in data set [2], over 85%; in data set [3] (24 h, 1DP (1 day protectant)) it was over 85%; in data set [3] (72 h, 3DC (3 day curative)), 20 to 50%; in data set [4] it was over 85%.
Take `CCN(C)/C(C)=N/c1cc(C)c(C(=O)Cc2c(F)cc(F)cc2F)cc1C` [Compound 86]: the pest or weed control at 200 ppm in data set [1] (24 h, 1DP (1 day protectant)) is over 85%; in data set [1] (72 h, 3DC (3 day curative)), over 85%; in data set [2], under 20%; in data set [3] (24 h, 1DP (1 day protectant)), under 20%; in data set [3] (72 h, 3DC (3 day curative)), under 20%; in data set [4], over 85%.
In the case of `CC/C(=N\c1cc(C)c(C(=O)Cc2c(F)cc(F)cc2F)cc1C)N(C)CC` [Compound 87], the pest or weed control at 200 ppm in data set [1] (24 h, 1DP (1 day protectant)) was 50 to 85%; in data set [1] (72 h, 3DC (3 day curative)), 20 to 50%; in data set [2], under 20%; in data set [3] (24 h, 1DP (1 day protectant)), under 20%; in data set [3] (72 h, 3DC (3 day curative)), under 20%; in data set [4] it was over 85%.
As to `Cc1cc(C(=O)Cc2c(F)cc(F)cc2F)c(C)cc1/N=C1\CCCCN1C` [Compound 88], the pest or weed control at 200 ppm in data set [1] (24 h, 1DP (1 day protectant)) was 50 to 85%; in data set [1] (72 h, 3DC (3 day curative)), over 85%; in data set [2], under 20%; in data set [3] (24 h, 1DP (1 day protectant)), under 20%; in data set [3] (72 h, 3DC (3 day curative)) it was under 20%; in data set [4], 50 to 85%.
For the compound `CCN(C)/C=N/c1cc(C)c(C(=O)Cc2c(F)cc(F)cc2F)cc1OC` [Compound 89], the pest or weed control at 200 ppm was 50 to 85% in data set [1] (24 h, 1DP (1 day protectant)); 20 to 50% in data set [1] (72 h, 3DC (3 day curative)); 20 to 50% in data set [2]; under 20% in data set [3] (24 h, 1DP (1 day protectant)); under 20% in data set [3] (72 h, 3DC (3 day curative)); over 85% in data set [4].
With `CCN(C)/C(C)=N/c1cc(C)c(C(=O)CC2CCCC2)cc1C` [Compound 90], the pest or weed control at 200 ppm in data set [1] (24 h, 1DP (1 day protectant)) was over 85%; in data set [1] (72 h, 3DC (3 day curative)), over 85%; in data set [2], 20 to 50%; in data set [3] (24 h, 1DP (1 day protectant)), under 20%; in data set [3] (72 h, 3DC (3 day curative)), under 20%; in data set [4] it was over 85%.
As to `CC/C(=N\c1cc(C)c(C(=O)CC2CCCC2)cc1C)N(C)CC` [Compound 91], the pest or weed control at 200 ppm in data set [1] (24 h, 1DP (1 day protectant)) is over 85%; in data set [1] (72 h, 3DC (3 day curative)), over 85%; in data set [2], under 20%; in data set [3] (24 h, 1DP (1 day protectant)), under 20%; in data set [3] (72 h, 3DC (3 day curative)), under 20%; in data set [4] it was over 85%.
`Cc1cc(C(=O)CC2CCCC2)c(C)cc1/N=C1\CCCCN1C` [Compound 92]: the pest or weed control at 200 ppm was 50 to 85% in data set [1] (24 h, 1DP (1 day protectant)); 50 to 85% in data set [1] (72 h, 3DC (3 day curative)); 20 to 50% in data set [2]; under 20% in data set [3] (24 h, 1DP (1 day protectant)); under 20% in data set [3] (72 h, 3DC (3 day curative)); over 85% in data set [4].
Turning to `CCN(C)/C(S)=N/c1cc(C)c(C(=O)Cc2c(F)cc(F)cc2F)cc1C` [Compound 93], the pest or weed control at 200 ppm in data set [1] (24 h, 1DP (1 day protectant)) is over 85%; in data set [1] (72 h, 3DC (3 day curative)), over 85%; in data set [2], over 85%; in data set [3] (24 h, 1DP (1 day protectant)), 50 to 85%; in data set [3] (72 h, 3DC (3 day curative)) it was under 20%; in data set [4] it was over 85%.
Consider `CCN(C)/C(S)=N/c1cc(C)c(C(=O)CC2CCCC2)cc1C` [Compound 94], for which the pest or weed control at 200 ppm in data set [1] (24 h, 1DP (1 day protectant)) was over 85%; in data set [1] (72 h, 3DC (3 day curative)) it was over 85%; in data set [2], over 85%; in data set [3] (24 h, 1DP (1 day protectant)), over 85%; in data set [3] (72 h, 3DC (3 day curative)), under 20%; in data set [4], over 85%.
